Measurements: ChEMBL document CHEMBL1140651, “N-(6,7-dichloro-2,3-dioxo-1,2,3,4-tetrahydroquinoxalin-5-yl)-N-alkylsulfonamides as peripherally restricted N-methyl-D-aspartate receptor antagonists for the treatment of pain” (Bioorg Med Chem Lett, 2007)
In brackets after ≈: the same amount, converted by molar mass. Several values for one entry are separate records, joined by “and”; a condition that tells them apart may be missing. Equal values may be shown once.

Legend:
Liver microsomes [1] = experiment: Metabolic stability in human liver microsome; format: ADME
Liver microsomes [2] = experiment: Metabolic stability in rat liver microsome; format: ADME
[3] = target: Glutamate receptor ionotropic, NMDA 1 (Homo sapiens, UniProt Q05586); experiment: Antagonist activity at human NMDA NR1 receptor; format: functional
[4] = (§1) Bioavailability in Sprague-Dawley rat at 5 mg/kg, po; format: ADME, organism-based; conditions: Sprague-Dawley, in vivo
[5] = AUC in Sprague-Dawley rat at 5 mg/kg, po; format: ADME, organism-based; design: dose 5 mg/kg, route oral; conditions: plasma
[6] = Solubility of the compound; format: physicochemical
[7] = Permeability from apical to basolateral side of the Caco-2 cell membrane; format: ADME, cell-based; conditions: human, read-out: permeability
Caco-2 = experiment: Ratio of permeability from basolateral to apical over apical to basolateral side of the Caco-2 cell membrane; format: ADME, cell-based; conditions: human
Rattus norvegicus [8] = experiment: […] in […] at 300 mg/kg, ip by MES assay; format: functional; conditions: route intraperitoneal
Rattus norvegicus [9] = experiment: Analgesic activity in rat formalin pain model assessed as reduction in pain response at 50 mg/kg, ip; format: functional; design: scale not given: the % may be the effect or the level left; conditions: route intraperitoneal
Rattus norvegicus [10] = experiment: Analgesic activity in rat formalin pain model assessed as reduction in pain response at 50 mg/kg, po; format: functional; design: scale not given: the % may be the effect or the level left
Rattus norvegicus [11] = experiment: as §1; format: ADME, organism-based; conditions: in vivo
Rattus norvegicus [12] = experiment: Anticonvulsant activity in Swiss Webster mouse at 100 mg/kg by MES assay; format: functional

Row | SMILES | Activity (Liver microsomes [1]) | Activity (Liver microsomes [2]) | IC50 [3] | bioavailability [4] [%] | AUC [5] [ng·h/mL] | solubility [6] [µg/mL] | Papp A→B [7] [×10⁻⁶ cm/s] | Ratio (Caco-2) | Activity (Rattus norvegicus [8]) [%] | Activity (Rattus norvegicus [9]) [%] | Activity (Rattus norvegicus [10]) [%] | F (Rattus norvegicus [11]) | Activity (Rattus norvegicus [12]) [%]
1 | CCOCCN(c1c(Cl)c(Cl)cc2[nH]c(=O)c(=O)[nH]c12)S(C)(=O)=O | Active | Active | 209 nM | 78 | 2260 | 79 (≈ 199 µM) | 10 | 1.38 |  |  |  |  | 
2 | COc1cccc(CN(c2c(Cl)c(Cl)cc3[nH]c(=O)c(=O)[nH]c23)S(C)(=O)=O)c1 | Active | Active | 12 nM | 8 | 152 | 40 (≈ 90 µM) | 3.43 | 4.67 |  |  |  |  | 
3 | CCOCCCN(c1c(Cl)c(Cl)cc2[nH]c(=O)c(=O)[nH]c12)S(C)(=O)=O | Active | Active | 19 nM | 33 | 1270 | 82 (≈ 200 µM) | 0.44 | 28.4 |  |  |  |  | 
4 | COCCN(c1c(Cl)c(Cl)cc2[nH]c(=O)c(=O)[nH]c12)S(C)(=O)=O | Active | Active | 38 nM | 33 | 1080 | 76 (≈ 199 µM) | 0.01 |  |  |  |  |  | 
5 | CS(=O)(=O)N(Cc1cccc(F)c1)c1c(Cl)c(Cl)cc2[nH]c(=O)c(=O)[nH]c12 | Active | Active | 45 nM | 10 | 589 | 23 (≈ 53.2 µM) | 1.75 | 4.07 |  |  |  |  | 
6 | COCCN(c1c(C)c(Cl)cc2[nH]c(=O)c(=O)[nH]c12)S(C)(=O)=O | Active | Active | 74 nM | 100 | 2620 | 72 (≈ 199 µM) | 0.01 |  |  |  |  |  | 
7 | CCOCCOCCN(c1c(Cl)c(Cl)cc2[nH]c(=O)c(=O)[nH]c12)S(C)(=O)=O | Active | Active | 166 nM | 90 | 840 | 88 (≈ 200 µM) | 0.97 | 12.4 |  |  |  |  | 
8 | COCCCN(c1cc(Cl)cc2[nH]c(=O)c(=O)[nH]c12)S(C)(=O)=O | Active | Active | 728 nM |  |  | 72 (≈ 199 µM) | 0.01 | 0.1 |  |  |  |  | 
9 | CS(=O)(=O)N(CC1CCCCO1)c1c(Cl)c(Cl)cc2[nH]c(=O)c(=O)[nH]c12 (stereo unspecified) | Active | Active | 39 nM | 53 | 1490 | 25 (≈ 59.2 µM) | < 0.01 |  |  |  |  |  | 
10 | CCS(=O)(=O)N(CCC(F)(F)F)c1c(Cl)c(Cl)cc2[nH]c(=O)c(=O)[nH]c12 | Active | Active | 109 nM and 20 nM and 27 nM | 32 | 3920 |  |  |  | 0 | 60 | 30 |  | 
11 | COCCCN(c1c(Cl)c(Cl)cc2[nH]c(=O)c(=O)[nH]c12)S(C)(=O)=O | Active | Active |  | 41 |  | 79 (≈ 199 µM) | 2.06 | 6.05 | 20 |  |  | 43% and 39% | 
12 | Cc1cc2[nH]c(=O)c(=O)[nH]c2c(N(CCO)S(C)(=O)=O)c1Cl | Active | Active | 4 nM | 9 | 791 | 70 (≈ 201 µM) |  |  |  |  |  |  | 0
13 | Cc1c(Cl)cc2[nH]c(=O)c(=O)[nH]c2c1N(CCO)S(C)(=O)=O | Active | Active | 14 nM | 4 | 605 | 70 (≈ 201 µM) |  |  |  |  |  |  | 0
14 | CS(=O)(=O)N(CCC(F)(F)F)c1c(Cl)c(Cl)cc2[nH]c(=O)c(=O)[nH]c12 | Active | Active | 22 nM and 11 nM and 18 nM |  |  | 56 (≈ 133 µM) | 0.41 | 15 | 0 | 40 |  |  | 
15 | Cc1cc2[nH]c(=O)c(=O)[nH]c2c(N(CC(=O)O)S(C)(=O)=O)c1Cl | Active | Active | 1 nM | 5 | 155 | 72 (≈ 199 µM) |  |  |  |  |  |  | 62.5
16 | CC(O)CN(c1c(Cl)c(Cl)cc2[nH]c(=O)c(=O)[nH]c12)S(C)(=O)=O (stereo unspecified) | Active | Active | 40 nM | 1 | 680 | 76 (≈ 199 µM) |  |  |  |  |  |  | 
17 | CS(=O)(=O)N(CC1CCCO1)c1c(Cl)c(Cl)cc2[nH]c(=O)c(=O)[nH]c12 (stereo unspecified) | Active | Active | 59 nM | 31 | 922 | 16 (≈ 39.2 µM) | 1.52 | 7.55 |  |  |  |  | 
18 | Cc1c(Cl)cc2[nH]c(=O)c(=O)[nH]c2c1N(CC(=O)O)S(C)(=O)=O | Active | Active | 2 nM | 7 | 1500 |  |  |  |  |  |  |  | 87.5
19 | CCc1c(Cl)cc2[nH]c(=O)c(=O)[nH]c2c1N(CCO)S(C)(=O)=O | Active | Active | 58 nM | 1 | 183 | 72 (≈ 199 µM) |  |  |  |  |  |  | 0
20 | CCc1cc2[nH]c(=O)c(=O)[nH]c2c(N(CCCOC)S(C)(=O)=O)c1Cl | Active | Active | 49 nM | 47 | 632 | 78 (≈ 200 µM) | 0.01 |  |  |  |  |  | 
21 | CS(=O)(=O)N(CC(=O)O)c1c(Cl)c(Cl)cc2[nH]c(=O)c(=O)[nH]c12 | Active | Active | 2 nM |  | 393 | 76 (≈ 199 µM) |  |  |  |  |  |  | 100
22 | CS(=O)(=O)N(CCCO)c1c(Cl)c(Cl)cc2[nH]c(=O)c(=O)[nH]c12 | Active | Active | 41 nM | 1 | 136 | 76 (≈ 199 µM) |  |  |  |  |  |  | 
23 | COCCN(c1c(Cl)c(C)cc2[nH]c(=O)c(=O)[nH]c12)S(C)(=O)=O | Active | Active | 77 nM | 57 | 1190 | 72 (≈ 199 µM) | 0.14 | 30.6 |  |  |  |  | 
